Values quoted from earlier work, collected in publication PMC7604311, “Caprine Bactenecins as Promising Tools for Developing New Antimicrobial and Antitumor Drugs” (Frontiers in Cellular and Infection Microbiology, 2020).

Experiments:
Set-up in all cases: key to Susceptibility category: R – resistant; I – intermediate; S – susceptible
Conditions in all cases: initial susceptibility testing of the clinical isolate; ref supplying institutions; cited from earlier work
A. baumannii 7226/16 = test system: A. baumannii 7226/16
Description: page 1: Supplementary Material Supplementary Table 1. Susceptibility profiles of tested clinical isolates of bacteria. Gram-negative: Gram-positive: antibiotic E. coli A. baumannii P. aeruginosa K. pneumoniae antibiotic S. aureus ESBL 521/17 7226/16 MDR 522/17 ESBL 344/17 1399/17 AMP* R [≥32] R [≥32 ] R [≥32 ] R [≥32] AMP* R [≥32 ] AMC R [16] - - S [≤2] AMC - CTX R [≥64] - - S [≤1] AMX - CAZ R [≥64] - R [≥64] S [≤1] AZM R [≥4] FEP R [≥64] - R [≥64] S [≤1] VAN S [≤2] ATM R [≥64] - - S [≤1] DOX I [2] IPM S [≤1] R [≥16] I [8] S [≤1] CLI I [2] MEM S [≤0.25 ] R [≥32 ] R [≥16] S [≤0.25] MEM I [4] AM ...

S. aureus 1399/17 = test system: S. aureus 1399/17
E. coli ESBL 521/17 = test system: E. coli ESBL 521/17
[1] = test system: K. pneumoniae ESBL 344/17;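 note: each antibiotic is scored as S (susceptible), I (intermediate) or R (resistant), with its MIC listed alongside, in a susceptibility profile of the clinical isolate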
P. aeruginosa MDR 522/17 = test system: P. aeruginosa MDR 522/17

## NCC[C@H](O)C(=O)N[C@@H]1C[C@H](N)[C@@H](O[C@H]2O[C@H](CN)[C@@H](O)[C@H](O)[C@H]2O)[C@H](O)[C@H]1O[C@H]1O[C@H](CO)[C@@H](O)[C@H](N)[C@H]1O [AMK, amikacin]
A. baumannii 7226/16
  MIC of antibiotic: 8 mg/L
  Susceptibility category: I
S. aureus 1399/17
  MIC of antibiotic: ≥ 64 mg/L
  Susceptibility category: R
E. coli ESBL 521/17
  MIC of antibiotic: 16 mg/L
  Susceptibility category: I
[1]
  MIC of antibiotic: ≤ 2 mg/L
  Susceptibility category: S
P. aeruginosa MDR 522/17
  MIC of antibiotic: 4 mg/L
  Susceptibility category: I

## CC1(C)S[C@@H]2[C@H](NC(=O)[C@H](N)c3ccccc3)C(=O)N2[C@H]1C(=O)O [AMP*, ampicillin]
A. baumannii 7226/16
  MIC of antibiotic: ≥ 32 mg/L
  Susceptibility category: R
S. aureus 1399/17
  MIC of antibiotic: ≥ 32 mg/L
  Susceptibility category: R
E. coli ESBL 521/17
  MIC of antibiotic: ≥ 32 mg/L
  Susceptibility category: R
[1]
  MIC of antibiotic: ≥ 32 mg/L
  Susceptibility category: R
P. aeruginosa MDR 522/17
  MIC of antibiotic: ≥ 32 mg/L
  Susceptibility category: R

## C[C@H]1[C@H](NC(=O)/C(=N\OC(C)(C)C(=O)O)c2csc(N)n2)C(=O)N1S(=O)(=O)O [ATM, aztreonam]
E. coli ESBL 521/17
  MIC of antibiotic: ≥ 64 mg/L
  Susceptibility category: R
[1]
  MIC of antibiotic: ≤ 1 mg/L
  Susceptibility category: S

## CC[C@H]1OC(=O)[C@H](C)[C@@H](O[C@H]2C[C@@](C)(OC)[C@@H](O)[C@H](C)O2)[C@H](C)[C@@H](O[C@@H]2O[C@H](C)C[C@H](N(C)C)[C@H]2O)[C@](C)(O)C[C@@H](C)CN(C)[C@H](C)[C@@H](O)[C@]1(C)O [AZM, azithromycin]
S. aureus 1399/17
  MIC of antibiotic: ≥ 4 mg/L
  Susceptibility category: R

## CC(C)(O/N=C(\C(=O)N[C@@H]1C(=O)N2C(C(=O)[O-])=C(C[n+]3ccccc3)CS[C@H]12)c1csc(N)n1)C(=O)O [CAZ, ceftazidime]
E. coli ESBL 521/17
  MIC of antibiotic: ≥ 64 mg/L
  Susceptibility category: R
[1]
  MIC of antibiotic: ≤ 1 mg/L
  Susceptibility category: S
P. aeruginosa MDR 522/17
  MIC of antibiotic: ≥ 64 mg/L
  Susceptibility category: R

## CCC[C@@H]1C[C@@H](C(=O)N[C@@H]([C@H]2O[C@H](SC)[C@H](O)[C@@H](O)[C@H]2O)[C@H](C)Cl)N(C)C1 [CLI, clindamycin]
S. aureus 1399/17
  MIC of antibiotic: 2 mg/L
  Susceptibility category: I

## CO/N=C(\C(=O)N[C@@H]1C(=O)N2C(C(=O)O)=C(COC(C)=O)CS[C@H]12)c1csc(N)n1 [CTX, cefotaxime]
E. coli ESBL 521/17
  MIC of antibiotic: ≥ 64 mg/L
  Susceptibility category: R
[1]
  MIC of antibiotic: ≤ 1 mg/L
  Susceptibility category: S

## C[C@H]1c2cccc(O)c2C(=O)C2=C(O)[C@]3(O)C(=O)C(C(N)=O)=C(O)[C@@H](N(C)C)[C@@H]3[C@@H](O)[C@@H]21 [DOX, doxycycline]
S. aureus 1399/17
  MIC of antibiotic: 2 mg/L
  Susceptibility category: I

## CC[C@H]1OC(=O)[C@H](C)[C@@H](O[C@H]2C[C@@](C)(OC)[C@@H](O)[C@H](C)O2)[C@H](C)[C@@H](O[C@@H]2O[C@H](C)C[C@H](N(C)C)[C@H]2O)[C@](C)(O)C[C@@H](C)C(=O)[C@H](C)[C@@H](O)[C@]1(C)O [ERY, erythromycin]
A. baumannii 7226/16
  MIC of antibiotic: ≥ 32 mg/L
  Susceptibility category: R
S. aureus 1399/17
  MIC of antibiotic: ≥ 32 mg/L
  Susceptibility category: R
E. coli ESBL 521/17
  MIC of antibiotic: ≥ 32 mg/L
  Susceptibility category: R
[1]
  MIC of antibiotic: ≥ 32 mg/L
  Susceptibility category: R
P. aeruginosa MDR 522/17
  MIC of antibiotic: ≥ 32 mg/L
  Susceptibility category: R

## CO/N=C(\C(=O)N[C@@H]1C(=O)N2C(C(=O)[O-])=C(C[N+]3(C)CCCC3)CS[C@H]12)c1csc(N)n1 [FEP, cefepime]
E. coli ESBL 521/17
  MIC of antibiotic: ≥ 64 mg/L
  Susceptibility category: R
[1]
  MIC of antibiotic: ≤ 1 mg/L
  Susceptibility category: S
P. aeruginosa MDR 522/17
  MIC of antibiotic: ≥ 64 mg/L
  Susceptibility category: R

## C[C@@H]1O[C@@H]1P(=O)(O)O [FOF, fosfomycin]
E. coli ESBL 521/17
  MIC of antibiotic: ≤ 16 mg/L
  Susceptibility category: S
[1]
  MIC of antibiotic: ≤ 16 mg/L
  Susceptibility category: S

## C[C@@H](O)[C@H]1C(=O)N2C(C(=O)O)=C(SCCN=CN)C[C@H]12 [IPM, imipenem]
A. baumannii 7226/16
  MIC of antibiotic: ≥ 16 mg/L
  Susceptibility category: R
E. coli ESBL 521/17
  MIC of antibiotic: ≤ 1 mg/L
  Susceptibility category: S
[1]
  MIC of antibiotic: ≤ 1 mg/L
  Susceptibility category: S
P. aeruginosa MDR 522/17
  MIC of antibiotic: 8 mg/L
  Susceptibility category: I

## C[C@H]1COc2c(N3CCN(C)CC3)c(F)cc3c(=O)c(C(=O)O)cn1c23 [LVX, levofloxacin]
S. aureus 1399/17
  MIC of antibiotic: ≤ 1 mg/L
  Susceptibility category: S

## CCN[C@@H]1C[C@H](N)[C@@H](O[C@H]2OC(CN)=CC[C@H]2N)[C@H](O)[C@H]1O[C@H]1OC[C@](C)(O)[C@H](NC)[C@H]1O [NET, netilmicin]
E. coli ESBL 521/17
  MIC of antibiotic: 8 mg/L
  Susceptibility category: R
[1]
  MIC of antibiotic: ≤ 1 mg/L
  Susceptibility category: S
P. aeruginosa MDR 522/17
  MIC of antibiotic: ≥ 32 mg/L
  Susceptibility category: R

## O=C1CN(/N=C/c2ccc([N+](=O)[O-])o2)C(=O)N1 [NIT, nitrofurantoin]
E. coli ESBL 521/17
  MIC of antibiotic: 128 mg/L
  Susceptibility category: R

## CC1COc2c(N3CCN(C)CC3)c(F)cc3c(=O)c(C(=O)O)cn1c23 (stereo not shown) [OFL, ofloxacin]
S. aureus 1399/17
  MIC of antibiotic: ≥ 32 mg/L
  Susceptibility category: R

## Cc1onc(-c2ccccc2)c1C(=O)N[C@@H]1C(=O)N2[C@@H]1SC(C)(C)[C@@H]2C(=O)O [OX, oxacillin]
S. aureus 1399/17
  MIC of antibiotic: ≥ 32 mg/L
  Susceptibility category: R

## CC[C@H]1OC(=O)[C@H](C)[C@@H](O[C@H]2C[C@@](C)(OC)[C@@H](O)[C@H](C)O2)[C@H](C)[C@@H](O[C@@H]2O[C@H](C)C[C@H](N(C)C)[C@H]2O)[C@](C)(O)C[C@@H](C)/C(=N\OCOCCOC)[C@H](C)[C@@H](O)[C@]1(C)O [RXM, roxithromycin]
S. aureus 1399/17
  MIC of antibiotic: 2 mg/L
  Susceptibility category: I

## CN(C)c1cc(NC(=O)CNC(C)(C)C)c(O)c2c1C[C@H]1C[C@H]3[C@H](N(C)C)C(O)=C(C(N)=O)C(=O)[C@@]3(O)C(O)=C1C2=O [TGC, tigecycline]
A. baumannii 7226/16
  MIC of antibiotic: 4 mg/L
  Susceptibility category: I

## CN[C@H](CC(C)C)C(=O)N[C@H]1C(=O)N[C@@H](CC(N)=O)C(=O)N[C@H]2C(=O)N[C@H]3C(=O)N[C@H](C(=O)N[C@H](C(=O)O)c4cc(O)cc(O)c4-c4cc3ccc4O)[C@H](O)c3ccc(c(Cl)c3)Oc3cc2cc(c3O[C@@H]2O[C@H](CO)[C@@H](O)[C@H](O)[C@H]2O[C@H]2C[C@](C)(N)[C@H](O)[C@H](C)O2)Oc2ccc(cc2Cl)[C@H]1O [VAN, vancomycin]
S. aureus 1399/17
  MIC of antibiotic: ≤ 2 mg/L
  Susceptibility category: S

## amoxicillin–clavulanic acid [AMC]
E. coli ESBL 521/17
  MIC of antibiotic: 16 mg/L
  Susceptibility category: R
[1]
  MIC of antibiotic: ≤ 2 mg/L
  Susceptibility category: S

## ampicillin-sulbactam [SAM]
A. baumannii 7226/16
  MIC of antibiotic: 16 mg/L
  Susceptibility category: I

## colistin [CST]
E. coli ESBL 521/17
  MIC of antibiotic: ≤ 0.5 mg/L
  Susceptibility category: S
[1]
  MIC of antibiotic: ≤ 0.5 mg/L
  Susceptibility category: S
P. aeruginosa MDR 522/17
  MIC of antibiotic: ≥ 16 mg/L
  Susceptibility category: R

## trimethoprim–sulfamethoxazole [SXT]
A. baumannii 7226/16
  MIC of antibiotic: ≥ 320 mg/L
  Susceptibility category: R
E. coli ESBL 521/17
  MIC of antibiotic: ≥ 320 mg/L
  Susceptibility category: R
[1]
  MIC of antibiotic: ≤ 20 mg/L
  Susceptibility category: S
